Columns and labels:
[1] = system: HCV replicon cells Huh 9B; experiment: HCV replicon luciferase assay; type: cell-based; conditions: Hepatitis C virus; Huh 9B replicon cells, 72 h incubation, luciferase readout
Experimental: (§1) HCV replicon cells Huh 9B (ReBlikon), containing the firefly luciferase—ubiquitin—neomycin phosphotransferase fusion protein and EMCV-IRES driven HCV polyprotein with cell culture adaptive mutations.
(§2) Cells were cultured at 37° C. in a 5% CO2 environment and split twice a week on seeding at 2×10E6 cells/flask on day 1 and 1×10E6 3 days later. Some 0.25 mg/ml G418 was added to the culture medium (125 ul per 25 ml) but not the assay medium.
(§3) The culture medium consisted of DMEM with […] glucose and glutamax (Gibco 61965-026) supplemented with 1× non-essential amino acids, penicillin (100 IU/ml) / streptomycin (100 μg/ml), FCS (10%, 50 ml) and 1 mg/ml G418 (Invitrogen cat no 10131-027) & 10% foetal calf serum.
(§4) A flask of cells was trypsinised and a cell count carried out. Cells were diluted to 100,000 cells/ml and 100 μl of this used to seed one opaque white 96-well plate (for the replicon assay) and one flat-bottomed clear plate (for the tox assay) for every seven compounds to be tested for IC50. Wells G12 and H12 were left empty in the clear plate as the blank. Plates were then incubated at 37° C. in a 5% CO2 environment for 24 h.
(§5) On the following day compound dilutions are made up in medium at twice their desired final concentration in a clear round bottomed plate. All dilutions have a final DMSO concentration of 1%.
(§6) Once the dilution plate had been made up, controls and compounds were transferred to the assay plate (containing the cells) at 100 μl/well in duplicate plates. Exception: in the white (replicon) plate, no compound was added to wells A1 and A2 and 100 μl of 1% DMSO was added to these instead. In the clear (Tox) plate, wells E12 & F12 only contained the DMSO control. Plates were then incubated at 37° C. with 5% CO2 for 72 h.
At the end of the incubation time, the cells in the white plate were harvested by washing with 200 μl/well of warm (37° C.) PBS and lysed with 20 μl cell culture lysis buffer (Promega). […]

[2] = system: HCV replicon cells Huh 9B; experiment: Tox assay (methylene blue staining of replicon cells); type: cell-based; conditions: Huh 9B replicon cells, 72 h incubation, methylene blue absorbance at 620 nm
Experimental: as §1, §2, §3, §4, §5
as §6, with “Plates were then incubated at 37° C. with 5% CO2 for 72 h.” left out
The clear plate was stained with 100 μl 0.5% methylene blue in 50% ethanol at RT for 1 h, followed by solvation of the absorbed methylene blue in 100 μl per well of 1% lauroylsarcosine. Absorbance of the plate was measured on a microplate spectrophotometer (Molecular Devices) and the absorbance for each concentration of compound expressed as a proportion of the relative DMSO control. […]

Row | SMILES | IC50 [1] [nM] | Replicon TD50 [2]
1 | c1nc(Nc2ccc(N3CCOCC3)cc2)c2cc(-c3ccc4ncnc(Nc5ccc(N6CCOCC6)cc5)c4c3)ccc2n1 [Example 1, N-(4-morpholinophenyl)-6-(4-(4-morpholinophenylamino)quinazolin-6-yl)quinazolin-4-amine] | < 1000 | *** (>25 uM = ***)
2 | c1ccc(Nc2ncnc3ccc(-c4ccc5ncnc(Nc6ccc(N7CCOCC7)cc6)c5c4)cc23)cc1 [Example 2, N*4*-(4-Morpholin-4-yl-phenyl)-N*4′*-phenyl-[6,6′]biquinazolinyl-4,4′-diamine] | < 1000 | *** (>25 uM = ***)
3 | c1nc(Nc2ccc(-n3cncn3)cc2)c2cc(-c3ccc4ncnc(Nc5ccc(-n6cncn6)cc5)c4c3)ccc2n1 [Example 3, N*4*,N*4′*-Bis-(4-[1,2,4]triazol-1-yl-phenyl)-[6,6′]biquinazolinyl-4,4′-diamine] | < 1000 | *** (>25 uM = ***)
